Assay results reported in patent publication US8183364B2, “Substituted porphyrins” (Duke University, priority 2004, dated 2012).

Columns and labels:
[1] = stroke model; cited from earlier work
[2] = Oxidative degradation in the presence of ascorbic acid under aerobic conditions; format: physicochemical; settings: pH 7.8 (0.05 M tris buffer)
Procedure: Under these conditions porphyrins underwent oxidative degradation. As previously observed (Batinic-Haberle et al, J. Chem. Soc., Dalton Trans., pgs. 2689-2696 (2002)), those porphyrins that are of more positive E1/2 are stabilized in +2 oxidation state and are less prone to oxidative damage. Accordingly, 27% and 24% of MnTE-2-PyP^5+ and MnTMOE-2-PyP^5+ undergo degradation within 2 hours, but only 2% of MnTM,MOE-2-ImP^5+ and MnTDMOE-2-ImP^5+ and 3% of MnTDE-2-ImP^5+.

[3] = Electrochemistry: cyclic voltammetry of the Mn(III)/Mn(II) redox couple; format: physicochemical
Procedure: Electrochemistry. Measurements were performed on a CH Instruments Model 600 Voltammetric Analyzer (Spasojevic and Batinic-Haberle, Inorg. Chim. Acta. 317:230-242 (2001), Batinic-Haberle et al, J. Biol. Chem. 273:24521-24528 (1998), Batinic-Haberle et al, Inorg. Chem. 38:4011-4022 (1999)). A three-electrode system in a small volume cell (0.5 mL to 3 mL), with a 3 mm-diameter glassy carbon button working electrode (Bioanalytical Systems), plus the Ag/AgCl reference and Pt auxiliary electrodes was used. Argon-purged solutions contained 0.05 M phosphate buffer, pH 7.8, 0.1 M NaCl, and 0.5 mM metalloporphyrin. The scan rates were 0.01-0.5 V/s, typically 0.1 V/s. The potentials were standardized against the potassium ferrocyanide/ferricyanide (Kolthof and Tomsicek, J. Phys. Chem. 39:945 (1935)) and/or against MnTE-2-PyP^5+ (Spasojevic and Batinic-Haberle, Inorg. Chim. Acta. 317:230-242 (2001), Batinic-Haberle et al, J. Biol. Chem. 273:24521-24528 (1998), Batinic-Haberle et al, Inorg. Chem. 38:4011-4022 (1999)).
Electrochemistry. All cyclic voltammograms, ascribed to the Mn(III)/Mn(II) redox couple, are reversible. The E1/2 of di-ortho ethylimidazolylporphyrin, MnTDE-2-ImP^5+ is 118 mV more positive than of ortho ethylpyridylporphyrin, MnTE-2-PyP^5+ (+228 mV vs NHE), as a consequence of charge delocalization. A similar difference of 114 mV was seen between their methoxyethyl analogues. Mn porphyrins bearing N-pyridyl substituents of the same length, MnTnBu-PyP^5+ and MnTMOE-2-PyP^5+, have nearly identical E1/2 of +254 and +251 mV vs NHE, which is 26 and 23 mV higher than that of MnTE-PyP^5+.

[4] = test system: SOD-deficient JI132 E. coli; experiment: Aerobic growth of SOD-deficient E. coli; format: cell-based
Procedure: Aerobic growth of E. coli. Bacterial strains of E. coli used were wild type AB1157 (F-thr-1 leu-1 proA2 his-4 argE3 thr-1 lacY1 galK2 rpsL supE44 ara-14 xyl-15 mtl-1 tsx-33) and SOD-deficient JI132 (same as AB1157 plus (sodA::mudPR13)25 (sodB-kan)1-Δ2. Culture media were prepared as follows. M9 medium: 6 g/L Na2HPO4, 3 g/L KH2PO4, 0.5 g/L NaCl, 1 g/L NH4Cl, 2 mM MgSO4, 0.1 mM CaCl2, adjusted to pH 7.4 with NaOH, and supplemented with 0.2% glucose, 3 mg/L each of D-panthotenic acid and thiamine. M9CA medium contained M9 medium plus 0.2% casamino acids. 5-amino acid (5AA) minimal medium contained M9 medium plus 0.5 mM each of threonine, leucine, histidine, proline and arginine (Faulkner et al, J. Biocl. Chem. 269:23471 (1994)).
AB 1157 and 31132 were precultured overnight aerobically in M9CA medium at 37° C. and were then diluted to 3×10^7 cells/mL into 5 mL M9CA medium. JI132 was precultured in the presence of 20 μg/mL chloramphenicol and 500 μg/mL kanamycin. When the cells are transferred from M9CA medium to 5AA minimal medium cultures were first centrifuged and washed twice with the 5AA medium before final dilution in it. The centrifugation was conducted at room temperature to avoid temperature shocks. Cultures without and with Mn porphyrins (0.1 to 30 μM) were grown aerobically in 5 mL volume in test tubes in a thermostated orbital shaker (45° angle, 200 rpm) at 37° C.). Rates of growth were followed turbidimetrically at 700 nm to minimize interference from the absorbance of test compounds.

[5] = given intravenously; cited from earlier work
[6] = Thin-layer chromatography on silica gel (retention factor Rf, lipophilicity); format: physicochemical; settings: silica gel TLC, KNO3-saturated H2O/H2O/acetonitrile = 1/1/8
Procedure: Uv/vis spectra of porphyrin ligands and their Mn complexes were taken on a Shimadzu UV-2501-PC spectrophotometer at 25° C. Thin-layer chromatography of ligands and Mn complexes was done using silica gel plates with KNO3satH2O/H2O/acetonitrile=1/1/8.
Thin-layer chromatography. All new methoxyporphyrins are more lipophilic than MnTE-2-PyP^5+ and MnTDE-2-ImP^5+.

[7] = Catalysis of O2.^− dismutation by pulse radiolysis; format: biochemical; settings: pulse radiolysis, pH 7.8, (22 ± 1) °C; kcat ±30%
Procedure: Catalysis of O2.^− dismutation. The catalytic rate constants for the O2.^− dismutation were determined by pulse radiolysis in 0.05 M phosphate buffer (pH 7.8) at (22±1)° C. as previously described (Batinic-Haberle et al, Inorg. Chem. 40:726 (2001)). In the present study 10 mM formate was used as a scavenger for H. atoms and .OH radicals, which leads first to production of CO2.^− radicals and then to O2.^− radicals. This system is known to lead to conversion of all primary radicals of water radiolysis into O2.^−.
Catalysis of O2.^− dismutation. Pulse radiolysis was used to assess the SOD-like activities of the Mn porphyrins studied. The initial concentration of O2.^− produced by the pulse was about 27 μM, and the concentration of the Mn porphyrin was between 0.5 and 5 μM. The dismutation of O2.^− was followed at 280 nm. The catalytic rate constant was determined from the linear dependence of kobs upon the concentration of the catalyst (Batinic-Haberle et al, Inorg. Chem. 40:726 (2001)). All the new compounds have high O2.^− dismuting ability. The magnitude of the catalysis is due to the interplay of the electron-withdrawing effects of quaternized ortho pyridyl or di-ortho imidazolyl groups, favorable electrostatics, and the solvation of the metal site.

CCn1cc[n+](CC)c1-c1c2nc(c(-c3n(CC)cc[n+]3CC)c3ccc([n-]3)c(-c3n(CC)cc[n+]3CC)c3nc(c(-c4n(CC)cc[n+]4CC)c4ccc1[n-]4)C=C3)C=C2.[Mn+3] [MnTDE-2-ImP^5+, Mn(III) 5,10,15,20-tetrakis[N,N′-diethylimidazolium-2-yl]porphyrin]
neurotoxicity lower than the pyridyl compound (MnTE-2-PyP^5+) [1]: 16 fold
degradation within 2 hours [2]: 3%
E1/2 difference of imidazolyl porphyrin vs analogous pyridyl porphyrin [3]: more than 100 mV
Metal-centered redox potential E1/2 ([3]; Mn(III)/Mn(II), 0.1 M NaCl, 0.05 M phosphate buffer, pH 7.8, ±3 mV): +346 mV vs NHE
E1/2 more positive / higher than that of MnTE-2-PyP^5+ ([3]; difference vs MnTE-2-PyP^5+ (+228 mV vs NHE)): 118 mV
protection of SOD-deficient E. coli ([4]; M9CA medium, 1 μM): low protection
protection of SOD-deficient E. coli ([4]; M9CA medium, 3 μM): ineffective
protection of SOD-deficient E. coli ([4]; M9CA medium, 30 μM): either much higher or near full protection
facilitation of aerobic growth of SOD-deficient E. coli, dependence on concentration ([4]; M9CA medium, 1-30 μM): concentration-dependent manner
protection of E. coli from oxidative stress ([4]; ≦3 μM levels (FIG. 10: 5AA minimal medium)): the least effective
passing the spinal cord blood barrier compared to MnTE-2-PyP^5+ [5]: less effective
protectiveness in spinal cord injury compared to MnTE-2-PyP^5+ [5]: lacks protectiveness
Rf (compound path/solvent path), metal-free porphyrin (in parenthesis) ([6]; metal-free ligand of the named Mn porphyrin): 0.23
Rf (compound path/solvent path), Mn complex [6]: 0.17
log kcat for O2^− dismutation [7]: 7.83
